Experimental data reported in PubChem BioAssay (NCI).
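Cells were grown in 96-well plates and exposed to each compound for 48 hours at five concentrations; endpoints were interpolated linearly between bracketing concentrations, or set to the highest concentration if not reached. GI50 marks 50% less growth. TGI: total growth inhibition.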

Legend:
Assay in all cases: NCI tumour cell line growth inhibition, 48 h
[1] = test system: SF-539 CNS
[2] = test system: HCT-116 colon
[3] = test system: HT29 colon
[4] = test system: SK-MEL-5 melanoma
[5] = test system: RPMI-8226 leukemia
[6] = test system: SN12C renal
[7] = test system: NCI-H226 lung
[8] = test system: TK-10 renal
[9] = test system: 786-0 renal
[10] = test system: OVCAR-5 ovarian
[11] = test system: HOP-62 NSCLC
[12] = test system: SK-OV-3 ovarian
[13] = test system: UO-31 renal
[14] = test system: SF-268 CNS
[15] = test system: EKVX NSCLC
[16] = test system: MCF7 breast
[17] = test system: NCI-H522 lung
[18] = test system: T-47D breast
[19] = test system: UACC-257 melanoma
[20] = test system: KM12 colon
[21] = test system: A498 renal
[22] = test system: SR leukemia
[23] = test system: BT-549 breast
[24] = test system: NCI-H460 lung
[25] = test system: HCT-15 colon
[26] = test system: SK-MEL-28 melanoma
[27] = test system: MOLT-4 leukemia
[28] = test system: SW-620 colon
[29] = test system: MALME-3M melanoma
[30] = test system: SF-295 CNS
[31] = test system: MDA-MB-231 breast
[32] = test system: CAKI-1 renal
[33] = test system: HL-60(TB) leukemia
[34] = test system: HCC-2998 colon
[35] = test system: OVCAR-8 ovarian
[36] = test system: M14 melanoma
[37] = test system: COLO 205 colon
[38] = test system: HS 578T breast
[39] = test system: A549 NSCLC
[40] = test system: RXF 393 renal
[41] = test system: DU-145 prostate
[42] = test system: ACHN renal
[43] = test system: SK-MEL-2 melanoma
[44] = test system: CCRF-CEM leukemia
[45] = test system: K-562 leukemia
[46] = test system: OVCAR-4 ovarian
[47] = test system: SNB-19 CNS
[48] = test system: U251 CNS
[49] = test system: NCI/ADR-RES ovarian
[50] = test system: SNB-75 CNS
[51] = test system: IGROV1 ovarian
[52] = test system: LOX IMVI melanoma
[53] = test system: MDA-MB-435
[54] = test system: PC-3 prostate
[55] = test system: HOP-92 NSCLC
[56] = test system: NCI-H23 lung
[57] = test system: UACC-62 melanoma
[58] = test system: OVCAR-3 ovarian

Structure (SMILES): COc1cccc2c1C=CC1(O2)Oc2cccc(OC)c2C=C1C (stereo unspecified)
- GI50 [1]: 363 nM
- TGI [1]: 1840 nM
- GI50 [2]: 413 nM
- TGI [2]: 10500 nM
- GI50 [3]: 404 nM
- GI50 [4]: 521 nM
- TGI [4]: 11000 nM
- GI50 [5]: 352 nM
- TGI [5]: 2350 nM
- GI50 [6]: 683 nM
- TGI [6]: > 100000 nM
- GI50 [7]: 1750 nM
- TGI [7]: > 100000 nM
- GI50 [8]: 12200 nM
- TGI [8]: > 100000 nM
- GI50 [9]: 563 nM
- GI50 [10]: 1300 nM
- TGI [10]: > 100000 nM
- GI50 [11]: 1490 nM
- TGI [11]: > 100000 nM
- GI50 [12]: 700 nM
- TGI [12]: > 100000 nM
- GI50 [13]: 1270 nM
- TGI [13]: > 100000 nM
- GI50 [14]: 1840 nM
- TGI [14]: > 100000 nM
- GI50 [15]: 2110 nM
- TGI [15]: > 100000 nM
- GI50 [16]: 383 nM
- TGI [16]: > 100000 nM
- GI50 [17]: 290 nM
- GI50 [18]: 858 nM
- TGI [18]: > 100000 nM
- GI50 [19]: 1510 nM
- TGI [19]: > 100000 nM
- GI50 [20]: 544 nM
- TGI [20]: > 100000 nM
- GI50 [21]: 486 nM
- TGI [21]: 5430 nM
- GI50 [22]: 284 nM
- TGI [22]: 2060 nM
- GI50 [23]: 656 nM
- TGI [23]: 6390 nM
- GI50 [24]: 426 nM
- TGI [24]: 2490 nM
- GI50 [25]: 420 nM
- TGI [25]: > 43600 nM
- GI50 [26]: 2880 nM
- TGI [26]: > 100000 nM
- GI50 [27]: 430 nM
- GI50 [28]: 434 nM
- TGI [28]: > 100000 nM
- GI50 [29]: 899 nM
- TGI [29]: 48000 nM
- GI50 [30]: 359 nM
- TGI [30]: > 44200 nM
- GI50 [31]: 596 nM
- TGI [31]: > 60200 nM
- GI50 [32]: 461 nM
- TGI [32]: > 100000 nM
- GI50 [33]: 364 nM
- TGI [33]: > 100000 nM
- GI50 [34]: 1430 nM
- TGI [34]: 9320 nM
- GI50 [35]: 1340 nM
- TGI [35]: 6820 nM
- GI50 [36]: 345 nM
- TGI [36]: 4890 nM
- GI50 [37]: 243 nM
- TGI [37]: 587 nM
- GI50 [38]: 2100 nM
- TGI [38]: > 100000 nM
- GI50 [39]: 821 nM
- TGI [39]: > 100000 nM
- GI50 [40]: 300 nM
- TGI [40]: 1630 nM
- GI50 [41]: 727 nM
- TGI [41]: > 100000 nM
- GI50 [42]: 699 nM
- TGI [42]: > 100000 nM
- GI50 [43]: 588 nM
- GI50 [44]: 356 nM
- TGI [44]: 3320 nM
- GI50 [45]: 347 nM
- TGI [45]: > 100000 nM
- GI50 [46]: 6390 nM
- TGI [46]: > 100000 nM
- GI50 [47]: 649 nM
- TGI [47]: > 100000 nM
- GI50 [48]: 415 nM
- TGI [48]: 5520 nM
- GI50 [49]: 417 nM
- TGI [49]: > 81700 nM
- GI50 [50]: 218 nM
- TGI [50]: 1510 nM
- GI50 [51]: 794 nM
- TGI [51]: > 100000 nM
- GI50 [52]: 515 nM
- TGI [52]: 3950 nM
- GI50 [53]: 226 nM
- TGI [53]: 556 nM
- GI50 [54]: 376 nM
- TGI [54]: > 36400 nM
- GI50 [55]: 316 nM
- GI50 [56]: 1370 nM
- TGI [56]: > 100000 nM

Structure (SMILES): C=C(C)[C@@H]1CC[C@]2(COP(=O)(OCC)OCC)CC[C@]3(C)[C@H](CC[C@@H]4[C@@]5(C)CCCNC(C)(C)[C@@H]5CC[C@]43C)[C@@H]12
- GI50 [1]: 1730 nM
- TGI [1]: 3240 nM
- GI50 [6]: 1570 nM
- TGI [6]: 3150 nM
- GI50 [8]: 1860 nM
- TGI [8]: 3580 nM
- GI50 [9]: 1710 nM
- TGI [9]: 3210 nM
- GI50 [10]: 1720 nM
- TGI [10]: 3140 nM
- GI50 [12]: 1690 nM
- TGI [12]: 3250 nM
- GI50 [13]: 1440 nM
- TGI [13]: 2810 nM
- GI50 [15]: 1460 nM
- TGI [15]: 2880 nM
- GI50 [16]: 1330 nM
- TGI [16]: 2970 nM
- GI50 [22]: 1410 nM
- TGI [22]: 4090 nM
- GI50 [57]: 1700 nM
- TGI [57]: 3200 nM
- GI50 [23]: 1680 nM
- TGI [23]: 3090 nM
- GI50 [24]: 1790 nM
- TGI [24]: 4620 nM
- GI50 [25]: 1560 nM
- TGI [25]: 3050 nM
- GI50 [26]: 1750 nM
- TGI [26]: 3180 nM
- GI50 [27]: 1850 nM
- TGI [27]: 4720 nM
- GI50 [29]: 1680 nM
- TGI [29]: 3370 nM
- GI50 [30]: 1680 nM
- TGI [30]: 3150 nM
- GI50 [31]: 1750 nM
- TGI [31]: 3330 nM
- GI50 [32]: 1500 nM
- TGI [32]: 2990 nM
- GI50 [34]: 1720 nM
- TGI [34]: 3220 nM
- GI50 [40]: 1550 nM
- TGI [40]: 2910 nM
- GI50 [41]: 1790 nM
- TGI [41]: 3390 nM
- GI50 [42]: 1730 nM
- TGI [42]: 3140 nM
- GI50 [44]: 1710 nM
- TGI [44]: 3850 nM
- GI50 [45]: 1660 nM
- TGI [45]: 7000 nM
- GI50 [46]: 1540 nM
- TGI [46]: 3130 nM
- GI50 [47]: 1710 nM
- TGI [47]: 3170 nM
- GI50 [49]: 1660 nM
- TGI [49]: 3260 nM
- GI50 [50]: 1220 nM
- TGI [50]: 2850 nM
- GI50 [51]: 1610 nM
- TGI [51]: 3180 nM
- GI50 [58]: 1670 nM
- TGI [58]: 3380 nM
- GI50 [53]: 1730 nM
- TGI [53]: 3180 nM
- GI50 [54]: 1590 nM
- TGI [54]: 2980 nM
- GI50 [55]: 1230 nM
- TGI [55]: 2570 nM
